Numbered stars: 1 amine (or outer) side, 2 acyl side, 3 side chain; on linkers, the order of the positions; unused ones are H or OH. Bridge positions count the residues as written; N and C are the ends. Square brackets hold non-standard residues; d marks the D form. Peptide text beside a SMILES is read from it. X2 = O=C([C@@H]1CC[C@@H]([*:3])N1[*:1])[*:2]; X1 = O=C([C@@H]1CC[C@H]([*:3])N1[*:1])[*:2]; hCys = N[C@@H](CCS)C(=O)O
What was measured:
[1] = target: T1, Angiotensin II receptor (AT-1) type-1 (Rattus norvegicus, UniProt P29089+P25095); assay: In vitro binding affinity against Angiotensin II receptor, type 1 from rat liver membranes
T1 sequence (P29089 whole entry): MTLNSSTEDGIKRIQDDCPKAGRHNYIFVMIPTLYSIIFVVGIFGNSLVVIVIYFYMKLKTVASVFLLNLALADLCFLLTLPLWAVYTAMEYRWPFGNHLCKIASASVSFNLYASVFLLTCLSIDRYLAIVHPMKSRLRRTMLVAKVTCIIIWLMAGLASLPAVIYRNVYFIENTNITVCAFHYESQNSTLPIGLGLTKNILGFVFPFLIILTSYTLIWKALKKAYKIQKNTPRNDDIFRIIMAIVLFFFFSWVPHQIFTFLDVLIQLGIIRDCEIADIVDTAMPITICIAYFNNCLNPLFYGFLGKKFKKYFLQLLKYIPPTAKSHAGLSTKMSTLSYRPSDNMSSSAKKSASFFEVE
T1 sequence (P25095 whole entry): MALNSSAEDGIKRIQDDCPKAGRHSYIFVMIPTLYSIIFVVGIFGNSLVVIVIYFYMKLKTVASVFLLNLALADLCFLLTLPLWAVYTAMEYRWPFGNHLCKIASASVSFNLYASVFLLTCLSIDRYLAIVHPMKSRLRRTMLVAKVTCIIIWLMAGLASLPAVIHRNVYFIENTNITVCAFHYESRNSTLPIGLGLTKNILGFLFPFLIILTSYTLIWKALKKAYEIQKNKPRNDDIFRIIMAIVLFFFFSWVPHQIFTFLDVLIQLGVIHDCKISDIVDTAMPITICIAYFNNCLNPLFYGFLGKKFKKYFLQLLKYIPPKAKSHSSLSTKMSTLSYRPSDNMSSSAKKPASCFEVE

[2] = target: T1, Angiotensin II receptor (AT-1) type-1; assay: In vitro inhibitory activity against rat Angiotensin II receptor, type 1 expressed in CHO cells; type: cell-based

Row | SMILES | Ki [1] [µM] | IC50 [2] [µM]
1 | NC(N)=NCCC[C@H](NC(=O)[C@@H](N)CC(=O)O)C(=O)N[C@H]1CCSSCC[C@@H](C(=O)N[C@@H](Cc2c[nH]cn2)C(=O)N2CCC[C@H]2C(=O)N[C@@H](Cc2ccccc2)C(=O)O)NC(=O)[C@H](Cc2ccc(O)cc2)NC1=O (H-DR[hCys]Y[hCys]HPF-OH; disulfide 3-5) | 0.00019 | 0.0002
2 | CC(C)[C@H](NC(=O)[C@H](CCCN=C(N)N)NC(=O)[C@@H](N)CC(=O)O)C(=O)N[C@@H](Cc1ccc(O)cc1)C(=O)N[C@H]1CS[C@@H]2CC[C@@H](C(=O)N[C@@H](Cc3ccccc3)C(=O)O)N2C(=O)[C@H](Cc2c[nH]cn2)NC1=O (H-DRVYCH[X2]F-OH; thioether 5-7) | – | > 10
3 | NC(N)=NCCC[C@H](NC(=O)[C@@H](N)CC(=O)O)C(=O)N[C@H]1CS[C@H]2CC[C@@H](C(=O)N[C@@H](Cc3c[nH]cn3)C(=O)N3CCC[C@H]3C(=O)N[C@@H](Cc3ccccc3)C(=O)O)N2C(=O)[C@H](Cc2ccc(O)cc2)NC1=O (H-DRCY[X1]HPF-OH; thioether 3-5) | – | > 10

The next lines start with the values.

Row | Ki [1] [µM] | IC50 [2] [µM] | SMILES
4 | – | > 10 | NC(N)=NCCC[C@H](NC(=O)[C@@H](N)CC(=O)O)C(=O)N[C@H]1CS[C@@H]2CC[C@@H](C(=O)N[C@@H](Cc3c[nH]cn3)C(=O)N3CCC[C@H]3C(=O)N[C@@H](Cc3ccccc3)C(=O)O)N2C(=O)[C@H](Cc2ccc(O)cc2)NC1=O (H-DRCY[X2]HPF-OH; thioether 3-5)
5 | 0.75 | 0.8 | NC(N)=NCCC[C@H](NC(=O)[C@@H](N)CC(=O)O)C(=O)N[C@H]1CCS[C@H]2CC[C@@H](C(=O)N[C@@H](Cc3c[nH]cn3)C(=O)N3CCC[C@H]3C(=O)N[C@@H](Cc3ccccc3)C(=O)O)N2C(=O)[C@H](Cc2ccc(O)cc2)NC1=O (H-DR[hCys]Y[X1]HPF-OH; thioether 3-5)
